Measurements taken from patent US20110251160A1 (priority 2008, published 2011).
Values joined by “and” are separate entries in the source; they are usually repeats but may differ in a detail not shown here. Equal entries are not always repeated. Where two headings read alike, the source gives them in different places.

Experiments:
[1] = tested on: patients with chronic atrial fibrillation; assay: PETRO study, phase 2 12-week dose finding study; assay type: in vivo, human; conditions: in vivo
Description: Primary endpoints were bleeding events and changes in D-dimer. […] Minor bleeding was dose related.

[2] = tested on: patients with atrial fibrillation at risk of stroke; conditions: for Stroke, systemic embolism, pulmonary embolism, myocardial infarction death or major bleed, Rate / Stroke, systemic embolism, pulmonary embolism, myocardial infarction death or major bleed, RR: net benefit
Description: Median follow-up was 2.0 years and the primary outcome was stroke or systemic embolism.
Patients were recruited from 951 clinical centers in 44 countries. In brief, patients were eligible if they had atrial fibrillation documented on electrocardiogram at screening or within 6 months; and at least one of the following: prior stroke or transient ischemic attack; left ventricular ejection fraction less than 40%; New York Heart Association heart failure symptoms of Class 2 or greater within 6 months; age at least 75 years; or age at least 65 years with diabetes mellitus, hypertension or coronary artery disease.
The time in therapeutic range was calculated by the method of Rosendaal (Rosendaal F R, et al., A method to determine the optimal intensity of oral anticoagulant therapy, Thromb Haemost, 1993, 69:236-239), excluding INRs from the first week and after discontinuations. […] Concomitant use of aspirin (less than 100 mg/day) or other antiplatelet agents was allowed.
Liver function testing was performed monthly during the first year of follow-up.
The primary study outcome was stroke or systemic embolism. The primary safety outcome was major hemorrhage. Secondary outcomes were stroke, systemic embolism and death. Other outcomes were myocardial infarction, pulmonary embolism, transient ischemic attacks, and hospitalizations. The primary net benefit-risk outcome was the composite of stroke, systemic embolism, pulmonary embolism, myocardial infarction, death or major hemorrhage. Stroke was defined as sudden onset of focal neurological deficit consistent with the territory of a major cerebral artery and categorized as ischemic, hemorrhagic or unspecified. Hemorrhagic transformation of ischemic stroke was not considered as hemorrhagic stroke. Intracranial hemorrhage included hemorrhagic stroke and sub-dural or sub-arachnoid hemorrhage. Systemic embolism was an acute vascular occlusion of an extremity or organ documented by imaging, surgery or autopsy. Major bleeding was defined as a reduction in hemoglobin level of at least […] or transfusion of at least 2 units of blood or symptomatic bleeding in a critical area or organ. Life-threatening bleeding was a subset of major bleeding that included fatal bleeding, symptomatic intracranial bleeding, bleeding with hemoglobin decrease of more than […] or requiring transfusion of more than 4 units of blood or requiring inotropic agents or necessitating surgery. All other bleeding was considered minor.
All primary and secondary outcome events were blindly and doubly adjudicated. An international team of adjudicators reviewed documents in local languages after blinding; or documents were translated by a independent group and blinded centrally. All transient ischemic attacks were reviewed to ensure that strokes had not been missed. To detect possible unreported events, symptom questionnaires were regularly administered to patients, and adverse events and hospitalization reports were scrutinized for unreported primary or secondary outcomes.
If maximum of the two p-values was greater than 0.025, the minimum of the two p-values must be less than 0.0125, one-sided, to claim statistical significance. All analyses were based on intention-to-treat.

Plasma protein binding = assay type: in vitro ADME; conditions: read-out: Bound to plasma proteins
[3] = tested on: activated partial thromboplastin time (aPTT), ecarin clotting time, and thrombin clotting time; assay: Clotting time prolongation
[4] = tested on: patients with atrial fibrillation
Description: PETRO-Ex began while the PETRO study was ongoing and investigators were initially kept blinded to patient treatment group until PETRO was completed. Unblinding investigators to patient treatment was possible thereafter.
Data were summarized descriptively; no hypothesis was to be tested. Events were analyzed on the basis of the treatment at onset. Incidences were reported as number of patients with events as well as normalized to 100 patient years on the respective treatment.
Patients who completed PETRO on 50 mg b.i.d. were switched to 150 mg q.d. upon entry in the PETRO-Ex study (N=93 patients). […] Patients who were down titrated to 50 mg q.d. based on a glomerular filtration rate ≦50 mL/min during PETRO were excluded from the long-term trial; patients down-titrated in other dose levels remained on the q.d. treatment at that dose.
The former is represented by the number of thromboembolic events per 100 years, the latter by the number of bleeding events per 100 years.

[5] = in vivo; cited from earlier work
[6] = Clinical pharmacokinetics and pharmacodynamics of dabigatran etexilate; conditions: human, plasma, oral
[7] = individual patients with LFT abnormalities, one table line per patient

[H]/N=C(/N)c1ccc(NCc2nc3cc(C(=O)N(CCC(=O)O)c4ccccn4)ccc3n2C)cc1 [Dabigatran]
Change in D-dimer levels [1]: comparable to warfarin | All Death, Rate ([2]; Dabigatran 110 mg b.i.d.): 3.74 /100 Person Years | Disabling or Fatal Stroke Modified Rankin 3-6, Rate ([2]; Dabigatran 110 mg b.i.d.): 0.95 /100 Person Years | First Hospitalization, Rate ([2]; Dabigatran 110 mg b.i.d.): 25.1 /100 Person Years | Myocardial Infarction, Rate ([2]; Dabigatran 110 mg b.i.d.): 0.73 /100 Person Years | Non-disabling Stroke Modified Rankin 0-2, Rate ([2]; Dabigatran 110 mg b.i.d.): 0.51 /100 Person Years | Pulmonary embolism, Rate ([2]; Dabigatran 110 mg b.i.d.): 0.12 /100 Person Years | Stroke or systemic embolism, Rate ([2]; Dabigatran 110 mg b.i.d.): 1.55 /100 Person Years | Stroke, Hemorrhagic, Rate ([2]; Dabigatran 110 mg b.i.d.): 0.12 /100 Person Years | Stroke, Rate ([2]; Dabigatran 110 mg b.i.d.): 1.45 /100 Person Years | Vascular Death, Rate ([2]; Dabigatran 110 mg b.i.d.): 2.42 /100 Person Years | All Death, RR ([2]; Dabigatran 110 mg vs. Warfarin): 0.90 | Disabling or Fatal Stroke Modified Rankin 3-6, RR ([2]; Dabigatran 110 mg vs. Warfarin): 0.94 | First Hospitalization, RR ([2]; Dabigatran 110 mg vs. Warfarin): 0.92 | Myocardial Infarction, RR ([2]; Dabigatran 110 mg vs. Warfarin): 1.35 | Non-disabling Stroke Modified Rankin 0-2, RR ([2]; Dabigatran 110 mg vs. Warfarin): 0.87 | Pulmonary embolism, RR ([2]; Dabigatran 110 mg vs. Warfarin): 1.26 | Stroke or systemic embolism, RR ([2]; Dabigatran 110 mg vs. Warfarin): 0.91 | Stroke, Hemorrhagic, RR ([2]; Dabigatran 110 mg vs. Warfarin): 0.31 | Stroke, Ischemic or Unspecified, RR ([2]; Dabigatran 110 mg vs. Warfarin): 1.12 | Stroke, RR ([2]; Dabigatran 110 mg vs. Warfarin): 0.92 | Vascular Death, RR ([2]; Dabigatran 110 mg vs. Warfarin): 0.90 | All Death, Rate ([2]; Dabigatran 150 mg b.i.d.): 3.63 /100 Person Years | Disabling or Fatal Stroke Modified Rankin 3-6, Rate ([2]; Dabigatran 150 mg b.i.d.): 0.67 /100 Person Years | First Hospitalization, Rate ([2]; Dabigatran 150 mg b.i.d.): 26.7 /100 Person Years | Myocardial Infarction, Rate ([2]; Dabigatran 150 mg b.i.d.): 0.74 /100 Person Years | Non-disabling Stroke Modified Rankin 0-2, Rate ([2]; Dabigatran 150 mg b.i.d.): 0.36 /100 Person Years | Pulmonary embolism, Rate ([2]; Dabigatran 150 mg b.i.d.): 0.15 /100 Person Years | Stroke or systemic embolism, Rate ([2]; Dabigatran 150 mg b.i.d.): 1.11 /100 Person Years | Stroke, Hemorrhagic, Rate ([2]; Dabigatran 150 mg b.i.d.): 0.10 /100 Person Years | Stroke, Ischemic or Unspecified, Rate ([2]; Dabigatran 150 mg b.i.d.): 0.92 /100 Person Years | Stroke, Rate ([2]; Dabigatran 150 mg b.i.d.): 1.01 /100 Person Years | Vascular Death, Rate ([2]; Dabigatran 150 mg b.i.d.): 2.27 /100 Person Years | All Death, RR ([2]; Dabigatran 150 mg vs. 110 mg): 0.97 | Disabling or Fatal Stroke Modified Rankin 3-6, RR ([2]; Dabigatran 150 mg vs. 110 mg): 0.70 | First Hospitalization, RR ([2]; Dabigatran 150 mg vs. 110 mg): 1.06 | Myocardial Infarction, RR ([2]; Dabigatran 150 mg vs. 110 mg): 1.02 | Non-disabling Stroke Modified Rankin 0-2, RR ([2]; Dabigatran 150 mg vs. 110 mg): 0.71 | Pulmonary embolism, RR ([2]; Dabigatran 150 mg vs. 110 mg): 1.27 | Stroke or systemic embolism, RR ([2]; Dabigatran 150 mg vs. 110 mg): 0.72 | Stroke, Hemorrhagic, RR ([2]; Dabigatran 150 mg vs. 110 mg): 0.85 | Stroke, Ischemic or Unspecified, RR ([2]; Dabigatran 150 mg vs. 110 mg): 0.68 | Stroke, RR ([2]; Dabigatran 150 mg vs. 110 mg): 0.70 | Vascular Death, RR ([2]; Dabigatran 150 mg vs. 110 mg): 0.94 | All Death, RR ([2]; Dabigatran 150 mg vs. Warfarin): 0.88 | Disabling or Fatal Stroke Modified Rankin 3-6, RR ([2]; Dabigatran 150 mg vs. Warfarin): 0.66 | First Hospitalization, RR ([2]; Dabigatran 150 mg vs. Warfarin): 0.97 | Myocardial Infarction, RR ([2]; Dabigatran 150 mg vs. Warfarin): 1.38 | Non-disabling Stroke Modified Rankin 0-2, RR ([2]; Dabigatran 150 mg vs. Warfarin): 0.62 | Pulmonary embolism, RR ([2]; Dabigatran 150 mg vs. Warfarin): 1.61 | Stroke or systemic embolism, RR ([2]; Dabigatran 150 mg vs. Warfarin): 0.66 | Stroke, Hemorrhagic, RR ([2]; Dabigatran 150 mg vs. Warfarin): 0.26 | Stroke, Ischemic or Unspecified, RR ([2]; Dabigatran 150 mg vs. Warfarin): 0.76 | Stroke, RR ([2]; Dabigatran 150 mg vs. Warfarin): 0.64 | Vascular Death, RR ([2]; Dabigatran 150 mg vs. Warfarin): 0.84 | Mortality rate, death from any cause ([2]; dabigatran 110 mg twice daily): 3.74 % per year | Rate of hemorrhagic stroke ([2]; dabigatran 110 mg twice daily): 0.12 % per year | Rate of myocardial infarction ([2]; dabigatran 110 mg twice daily): 0.73 % per year | Rate of net benefit-risk outcome (major vascular events, major bleeding and death) ([2]; dabigatran 110 mg twice daily): 7.37 % per year | Rate of the primary outcome, stroke or systemic embolism ([2]; dabigatran 110 mg twice daily): 1.55 % per year | Mortality rate, death from any cause ([2]; dabigatran 150 mg twice daily): 3.63 % per year | Rate of hemorrhagic stroke ([2]; dabigatran 150 mg twice daily): 0.10 % per year | Rate of myocardial infarction ([2]; dabigatran 150 mg twice daily): 0.74 % per year | Rate of net benefit-risk outcome (major vascular events, major bleeding and death) ([2]; dabigatran 150 mg twice daily): 7.22 % per year | Rate of the primary outcome, stroke or systemic embolism ([2]; dabigatran 150 mg twice daily): 1.11 % per year | Hepatotoxicity ([2]; human, in vivo): no evidence of hepatotoxicity | Stroke, systemic embolism, pulmonary embolism, myocardial infarction death or major bleed, Rate ([2]; Dabigatran 110 mg b.i.d.): 7.37 /100 Person Years | Stroke, systemic embolism, pulmonary embolism, myocardial infarction death or major bleed, RR ([2]; Dabigatran 110 mg vs. Warfarin): 0.92 | Stroke, systemic embolism, pulmonary embolism, myocardial infarction death or major bleed, Rate ([2]; Dabigatran 150 mg b.i.d.): 7.22 /100 Person Years | Stroke, systemic embolism, pulmonary embolism, myocardial infarction death or major bleed, RR ([2]; Dabigatran 150 mg vs. 110 mg): 0.98 | Stroke, systemic embolism, pulmonary embolism, myocardial infarction death or major bleed, RR ([2]; Dabigatran 150 mg vs. Warfarin): 0.90 | fraction unbound (Plasma protein binding): 0.65 to 0.75 | Prolongation of aPTT, ecarin clotting time, and thrombin clotting time [3]: dose dependent prolongation | Fatal major bleeds, number ([4]; 150 mg b.i.d.): 4 | Fatal major bleeds, number ([4]; 300 mg q.d.): 1 | Fatal bleeding events ([4]; all doses): 0.5 % per year | Fatal major bleeds, number ([4]; all doses): five | Intracranial bleed rate ([4]; all doses): 0.4 % per year | LFT abnormality ALT/ULN [4, 7]: >5x xULN (4×) and >5x^# xULN (2×) and >3x xULN (5×) and >3x^# xULN | LFT abnormality AST/ULN [4, 7]: >5x^# xULN (4×) and >5x xULN (4×) and >3x xULN (5×) | Serum half-life [5]: 12 to 17 h | half-life [6]: 12 to 17 h
